Assay results as given in patent US20110269811A1, “INHIBITORS OF SEMICARBAZIDE-SENSITIVE AMINE OXIDASE (SSAO) AND VAP-1 MEDIATED ADHESION USEFUL FOR TREATMENT AND PREVENTION OF DISEASES” (priority 2006, published 2011).

How the values were obtained:
[1] = molecular target: T1, human diamine oxidase (DAO) (Homo sapiens, UniProt P19801); experiment: Inhibition of diamine oxidase, AMPLEX Red assay, putrescine substrate; format: biochemical; conditions: recombinant DAO expressed in CHO cells
T1 construct: made in house; host or cells: CHO cells (Flp-In, pcDNA5/FRT); serum-free conditioned medium used directly
Protocol: Compounds of the invention can be tested for their inhibitory activity against diamine oxidase (DAO). Recombinant DAO was expressed in CHO cells using standard molecular biology methods as described herein. […] The serum containing media was removed and the cells were switched to CHO SFM serum free media for 48 hours. […] The media was collected and used directly as a source of diamine oxidase for enzyme analysis.

[2] = test system: Non-Peptide Receptors, Peptide Receptors, Ion Channels; experiment: Screening for receptors affected by SSAO inhibitor (specific ligand binding); conditions: 10 μM concentration; receptor families listed
Protocol: A screening procedure was employed to determine whether compound I-1-Z affects specific ligand binding to various receptors. Ligand binding to the following receptors was not affected by a 10 μM concentration of compound I-1-Z:
Non-Peptide Receptors: Adenosine, Adrenergic, Benzodiazepine, Cannabinoid, Dopamine, GABA, Glutamate, Histamine, Melatonin, Muscarinic, Prostanoid, Purinergic, Serotonin, Sigma;
Peptide Receptors: Angiotensin II, Bombesin, Bradykinin, Calcitonin-related peptide, Chemokine, Cholecystokinin, Cytokine, Endothein, Galanin, Growth factor, Melanocortin, Neurokinin, Neuropeptide Y, Neurotensin, Opioid, Somatostatin, VIP, Vasopressin;
Ion Channels: Calcium, Potassium, Sodium. […]
For Table 4 below, the specific ligand binding to the receptors is defined as the difference between the total binding and the nonspecific binding determined in the presence of an excess of unlabelled ligand. The results are expressed as a percent inhibition of control specific binding obtained in the presence of Compound I-1-Z. The IC50 values (concentration causing a half-maximal inhibition of control specific binding) and Hill coefficients (nH) were determined by non-linear regression analysis of the competition curves using Hill equation curve fitting. […]

A2A (h) = molecular target: T2, A2A (h) (Homo sapiens, UniProt P29274); experiment: Receptor binding screen, [^3H]CGS 21680; conditions: 10 uM Concentration of Compound I-1-Z; read-out: Mean Value, percent inhibition of control specific binding: A2A (h)
T2 construct: expressed in transfected cells; host or cells: HEK-293 cells

β1 (h) = molecular target: T3, β1 (h) (Homo sapiens, UniProt P08588); experiment: Receptor binding screen, [^3H](−)CGP 12177; conditions: 10 uM Concentration of Compound I-1-Z; read-out: Mean Value, percent inhibition of control specific binding: β1 (h)
T3 construct: expressed in transfected cells; host or cells: HEK-293 cells

β2 (h) = molecular target: T4, β2 (h) (Homo sapiens, UniProt P07550); experiment: Receptor binding screen, [^3H](−)CGP 12177; conditions: 10 uM Concentration of Compound I-1-Z; read-out: Mean Value, percent inhibition of control specific binding: β2 (h)
T4 construct: expressed in transfected cells; host or cells: Sf9 cells

AT2 (h) = molecular target: T5, AT2 (h) (Homo sapiens, UniProt P50052); experiment: Receptor binding screen, [^125I]CGP 42112A; conditions: 10 uM Concentration of Compound I-1-Z; read-out: Mean Value, percent inhibition of control specific binding: AT2 (h)
T5 construct: expressed in transfected cells; host or cells: Hela cells

BZD (peripheral) = molecular target: T6, BZD (peripheral) (Rattus norvegicus, UniProt P16257); experiment: Receptor binding screen, [^3H]PK 11195; conditions: 10 uM Concentration of Compound I-1-Z; read-out: Mean Value, percent inhibition of control specific binding: BZD (peripheral)
T6 construct: rat heart; from tissue; host or cells: rat heart

BB (non-selective) = experiment: Receptor binding screen, [^125I][Tyr^4]bombesin; set-up: species or system rat; conditions: 10 uM Concentration of Compound I-1-Z
Protocol: (§1) For Table 4 below, the specific ligand binding to the receptors is defined as the difference between the total binding and the nonspecific binding determined in the presence of an excess of unlabelled ligand. The results are expressed as a percent inhibition of control specific binding obtained in the presence of Compound I-1-Z. The IC50 values (concentration causing a half-maximal inhibition of control specific binding) and Hill coefficients (nH) were determined by non-linear regression analysis of the competition curves using Hill equation curve fitting. The inhibition constants (Ki) were calculated from the Cheng Prusoff equation (Ki=IC50/(1+(L/KD)), where L=concentration of radioligand in the assay, and KD=affinity of the radioligand for the receptor). In each experiment, the respective reference compound was tested concurrently with Compound I-1-Z in order to assess the assay suitability.

CCKA (h) (CCK1) = molecular target: T7, CCKA (h) (CCK1) (Homo sapiens, UniProt P32238); experiment: Receptor binding screen, [^125I]CCK-8; conditions: 10 uM Concentration of Compound I-1-Z; read-out: Mean Value, percent inhibition of control specific binding: CCKA (h) (CCK1)
T7 construct: expressed in transfected cells; host or cells: CHO cells

CCKB (h) (CCK2) = molecular target: T8, CCKB (h) (CCK2) (Homo sapiens, UniProt P32239); experiment: Receptor binding screen, [^125I]CCK-8; conditions: 10 uM Concentration of Compound I-1-Z; read-out: Mean Value, percent inhibition of control specific binding: CCKB (h) (CCK2)
T8 construct: expressed in transfected cells; host or cells: CHO cells

D2S (h) = molecular target: T9, D2S (h) (Homo sapiens, UniProt P14416); experiment: Receptor binding screen, [^3H]spiperone; conditions: 10 uM Concentration of Compound I-1-Z; read-out: Mean Value, percent inhibition of control specific binding: D2S (h)
T9 construct: expressed in transfected cells; host or cells: HEK-293 cells

H2 (h) = molecular target: T10, H2 (h) (Homo sapiens, UniProt P25021); experiment: Receptor binding screen, [^125I]APT; conditions: 10 uM Concentration of Compound I-1-Z; read-out: Mean Value, percent inhibition of control specific binding: H2 (h)
T10 construct: expressed in transfected cells; host or cells: CHO cells

NK1 (h) = molecular target: T11, NK1 (h) (Homo sapiens, UniProt P25103); experiment: Receptor binding screen, [^125I]BH-SP, U-373MG cells; conditions: 10 uM Concentration of Compound I-1-Z; read-out: Mean Value, percent inhibition of control specific binding: NK1 (h)
T11 construct: U-373MG cells; endogenous in cells; host or cells: U-373MG cells

Y1 (h) = molecular target: T12, Y1 (h) (Homo sapiens, UniProt P25929); experiment: Receptor binding screen, [^125I]peptide YY, SK-N-MC cells; conditions: 10 uM Concentration of Compound I-1-Z; read-out: Mean Value, percent inhibition of control specific binding: Y1 (h)
T12 construct: SK-N-MC cells; endogenous in cells; host or cells: SK-N-MC cells

κ (KOP) = molecular target: T13, κ (KOP) (Cavia porcellus, UniProt P41144); experiment: Receptor binding screen, [^3H]U 69593, guinea-pig cerebellum; conditions: 10 uM Concentration of Compound I-1-Z; read-out: Mean Value, percent inhibition of control specific binding: κ (KOP)
T13 construct: cerebellum; from tissue; host or cells: guinea-pig cerebellum
Protocol: as §1

5-HT2A (h) = molecular target: T14, 5-HT2A (h) (Homo sapiens, UniProt P28223); experiment: Receptor binding screen, [^3H]ketanserin; conditions: 10 uM Concentration of Compound I-1-Z; read-out: Mean Value, percent inhibition of control specific binding: 5-HT2A (h)
T14 construct: expressed in transfected cells; host or cells: HEK-293 cells

SK^+Ca channel = experiment: Receptor binding screen, [^125I]apamin; set-up: species or system rat; conditions: 10 uM Concentration of Compound I-1-Z
Protocol: as §1

Cl^− channel = experiment: Receptor binding screen, [^35S]TBPS; set-up: species or system rat; conditions: 10 uM Concentration of Compound I-1-Z
DA transporter (h) = molecular target: T15, DA transporter (h) (Homo sapiens, UniProt Q01959); experiment: Receptor binding screen, [^3H]BTCP; conditions: 10 uM Concentration of Compound I-1-Z; read-out: Mean Value, percent inhibition of control specific binding: DA transporter (h)
T15 construct: expressed in transfected cells; host or cells: CHO cells
T15 sequence (Q01959 whole entry): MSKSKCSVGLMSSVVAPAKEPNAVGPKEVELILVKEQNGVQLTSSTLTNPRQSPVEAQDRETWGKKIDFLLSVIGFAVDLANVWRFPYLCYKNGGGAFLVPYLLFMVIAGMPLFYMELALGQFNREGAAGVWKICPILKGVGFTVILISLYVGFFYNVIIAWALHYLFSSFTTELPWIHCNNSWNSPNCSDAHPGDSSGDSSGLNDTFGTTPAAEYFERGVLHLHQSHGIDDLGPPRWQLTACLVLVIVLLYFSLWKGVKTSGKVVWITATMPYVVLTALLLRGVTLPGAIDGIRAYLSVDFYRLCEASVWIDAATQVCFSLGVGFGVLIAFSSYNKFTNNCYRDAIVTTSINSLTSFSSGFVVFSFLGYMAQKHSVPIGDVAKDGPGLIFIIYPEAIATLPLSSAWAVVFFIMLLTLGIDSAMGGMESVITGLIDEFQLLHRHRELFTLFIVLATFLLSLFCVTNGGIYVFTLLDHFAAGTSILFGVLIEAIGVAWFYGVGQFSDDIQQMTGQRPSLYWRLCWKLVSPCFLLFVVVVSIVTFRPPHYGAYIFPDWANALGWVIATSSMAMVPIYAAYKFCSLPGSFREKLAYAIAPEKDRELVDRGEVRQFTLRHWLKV

T5 sequence (P50052 whole entry): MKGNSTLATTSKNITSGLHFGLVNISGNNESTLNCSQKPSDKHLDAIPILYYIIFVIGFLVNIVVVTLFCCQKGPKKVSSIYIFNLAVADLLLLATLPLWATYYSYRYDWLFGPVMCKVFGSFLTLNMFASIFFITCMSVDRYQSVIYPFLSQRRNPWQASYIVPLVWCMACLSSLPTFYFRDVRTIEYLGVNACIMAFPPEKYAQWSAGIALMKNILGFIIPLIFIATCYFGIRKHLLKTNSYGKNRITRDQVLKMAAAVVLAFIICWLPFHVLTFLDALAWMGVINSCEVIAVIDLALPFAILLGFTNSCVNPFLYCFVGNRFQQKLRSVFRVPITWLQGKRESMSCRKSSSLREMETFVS
T13 sequence (P41144 whole entry): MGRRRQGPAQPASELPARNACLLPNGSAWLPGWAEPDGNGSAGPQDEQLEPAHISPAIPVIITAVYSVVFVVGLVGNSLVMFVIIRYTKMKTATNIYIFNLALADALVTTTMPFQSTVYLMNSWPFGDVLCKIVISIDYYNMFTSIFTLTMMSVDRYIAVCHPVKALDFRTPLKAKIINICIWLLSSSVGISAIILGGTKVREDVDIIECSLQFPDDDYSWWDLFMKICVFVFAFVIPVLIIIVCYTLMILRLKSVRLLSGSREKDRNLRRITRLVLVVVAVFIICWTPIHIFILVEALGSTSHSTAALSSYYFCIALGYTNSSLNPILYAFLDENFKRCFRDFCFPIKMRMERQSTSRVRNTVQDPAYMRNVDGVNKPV
T9 sequence (P14416 1-414 isoform P14416-2): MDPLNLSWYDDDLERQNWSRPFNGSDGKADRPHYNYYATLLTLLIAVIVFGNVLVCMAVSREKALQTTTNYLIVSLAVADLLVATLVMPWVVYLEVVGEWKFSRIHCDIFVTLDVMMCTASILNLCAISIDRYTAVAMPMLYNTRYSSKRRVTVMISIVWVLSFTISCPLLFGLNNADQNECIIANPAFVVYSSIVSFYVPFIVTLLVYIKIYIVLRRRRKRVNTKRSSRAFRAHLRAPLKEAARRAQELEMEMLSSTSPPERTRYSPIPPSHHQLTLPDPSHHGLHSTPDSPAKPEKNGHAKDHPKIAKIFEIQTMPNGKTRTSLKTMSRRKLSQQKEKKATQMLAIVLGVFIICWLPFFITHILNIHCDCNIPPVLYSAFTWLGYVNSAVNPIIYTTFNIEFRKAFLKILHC
T10 sequence (P25021 whole entry): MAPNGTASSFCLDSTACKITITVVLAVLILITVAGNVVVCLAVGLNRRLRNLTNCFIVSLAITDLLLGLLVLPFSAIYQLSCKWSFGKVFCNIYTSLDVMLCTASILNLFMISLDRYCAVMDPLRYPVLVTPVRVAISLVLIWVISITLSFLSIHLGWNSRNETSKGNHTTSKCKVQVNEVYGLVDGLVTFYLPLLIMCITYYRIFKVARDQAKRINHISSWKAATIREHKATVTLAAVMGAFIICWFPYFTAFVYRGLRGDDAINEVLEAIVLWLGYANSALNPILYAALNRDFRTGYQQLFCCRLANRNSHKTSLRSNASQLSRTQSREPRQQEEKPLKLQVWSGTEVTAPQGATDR
T11 sequence (P25103 whole entry): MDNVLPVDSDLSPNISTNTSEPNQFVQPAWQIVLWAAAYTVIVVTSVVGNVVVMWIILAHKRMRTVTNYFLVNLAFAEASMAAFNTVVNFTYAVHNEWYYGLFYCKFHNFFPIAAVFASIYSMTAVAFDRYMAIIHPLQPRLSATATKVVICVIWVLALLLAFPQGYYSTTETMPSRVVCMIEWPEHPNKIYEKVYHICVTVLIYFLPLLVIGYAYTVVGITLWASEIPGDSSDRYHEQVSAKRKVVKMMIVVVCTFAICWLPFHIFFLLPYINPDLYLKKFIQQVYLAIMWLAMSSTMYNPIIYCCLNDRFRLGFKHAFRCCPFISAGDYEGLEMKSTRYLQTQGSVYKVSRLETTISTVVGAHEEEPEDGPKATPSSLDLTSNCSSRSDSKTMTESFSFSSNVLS
T14 sequence (P28223 whole entry): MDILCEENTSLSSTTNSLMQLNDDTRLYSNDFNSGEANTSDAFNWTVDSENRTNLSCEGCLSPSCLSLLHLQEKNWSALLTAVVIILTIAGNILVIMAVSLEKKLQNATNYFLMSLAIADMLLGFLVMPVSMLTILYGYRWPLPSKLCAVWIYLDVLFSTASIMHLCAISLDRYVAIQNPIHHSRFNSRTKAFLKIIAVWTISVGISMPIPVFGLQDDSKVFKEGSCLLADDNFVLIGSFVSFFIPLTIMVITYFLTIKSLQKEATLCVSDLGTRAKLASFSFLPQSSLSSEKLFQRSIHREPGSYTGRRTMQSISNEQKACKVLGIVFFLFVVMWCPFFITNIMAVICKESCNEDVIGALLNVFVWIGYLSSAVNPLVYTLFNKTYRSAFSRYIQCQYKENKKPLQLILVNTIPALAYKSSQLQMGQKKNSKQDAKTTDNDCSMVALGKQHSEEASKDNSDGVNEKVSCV
T2 sequence (P29274 whole entry): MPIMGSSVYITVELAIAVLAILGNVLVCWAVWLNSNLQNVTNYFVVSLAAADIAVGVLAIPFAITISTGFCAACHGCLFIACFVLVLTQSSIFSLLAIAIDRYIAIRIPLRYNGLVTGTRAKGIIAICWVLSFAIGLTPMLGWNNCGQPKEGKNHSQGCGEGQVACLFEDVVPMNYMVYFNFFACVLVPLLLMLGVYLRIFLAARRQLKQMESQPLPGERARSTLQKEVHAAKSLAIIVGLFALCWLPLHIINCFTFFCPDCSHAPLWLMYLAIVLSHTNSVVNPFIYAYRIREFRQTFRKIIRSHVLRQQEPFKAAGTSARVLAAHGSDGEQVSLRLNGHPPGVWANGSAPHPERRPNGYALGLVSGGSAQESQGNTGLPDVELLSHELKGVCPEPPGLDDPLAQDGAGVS
T7 sequence (P32238 whole entry): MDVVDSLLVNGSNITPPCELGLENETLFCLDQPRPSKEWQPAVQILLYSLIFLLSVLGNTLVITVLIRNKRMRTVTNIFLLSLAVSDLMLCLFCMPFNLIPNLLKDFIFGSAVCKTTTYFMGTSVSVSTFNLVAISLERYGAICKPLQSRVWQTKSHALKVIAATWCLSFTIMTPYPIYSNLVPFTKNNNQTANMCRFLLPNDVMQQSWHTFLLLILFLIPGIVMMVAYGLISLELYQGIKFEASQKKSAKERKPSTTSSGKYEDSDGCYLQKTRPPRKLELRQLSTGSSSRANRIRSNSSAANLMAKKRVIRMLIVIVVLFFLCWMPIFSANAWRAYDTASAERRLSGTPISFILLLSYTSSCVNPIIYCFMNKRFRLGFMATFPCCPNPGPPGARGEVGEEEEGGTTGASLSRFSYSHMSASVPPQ
T8 sequence (P32239 whole entry): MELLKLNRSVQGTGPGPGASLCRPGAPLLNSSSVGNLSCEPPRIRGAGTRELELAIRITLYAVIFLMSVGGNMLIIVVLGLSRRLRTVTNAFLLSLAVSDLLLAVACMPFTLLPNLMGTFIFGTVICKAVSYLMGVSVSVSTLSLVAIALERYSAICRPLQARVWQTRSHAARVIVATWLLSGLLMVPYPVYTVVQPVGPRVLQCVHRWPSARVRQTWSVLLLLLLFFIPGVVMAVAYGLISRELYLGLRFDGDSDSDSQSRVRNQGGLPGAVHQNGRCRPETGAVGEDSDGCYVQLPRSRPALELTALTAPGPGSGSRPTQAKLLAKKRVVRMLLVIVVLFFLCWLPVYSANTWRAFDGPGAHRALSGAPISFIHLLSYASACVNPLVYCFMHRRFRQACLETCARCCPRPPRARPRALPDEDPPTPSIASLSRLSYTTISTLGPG
T4 sequence (P07550 whole entry): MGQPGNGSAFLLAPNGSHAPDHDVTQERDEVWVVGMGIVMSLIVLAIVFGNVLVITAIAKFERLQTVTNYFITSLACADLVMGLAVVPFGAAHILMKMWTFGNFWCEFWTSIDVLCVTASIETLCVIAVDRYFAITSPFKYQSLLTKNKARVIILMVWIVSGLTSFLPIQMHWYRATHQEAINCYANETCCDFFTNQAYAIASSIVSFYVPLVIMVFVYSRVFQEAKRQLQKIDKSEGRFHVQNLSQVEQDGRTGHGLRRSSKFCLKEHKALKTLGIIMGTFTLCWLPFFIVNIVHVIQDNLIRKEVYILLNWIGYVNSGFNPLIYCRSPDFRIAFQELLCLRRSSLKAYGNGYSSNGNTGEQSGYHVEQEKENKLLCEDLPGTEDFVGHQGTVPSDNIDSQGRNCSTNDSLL

With `COc1ccc(C/C(=C/F)CN)cc1.Cl` [Compound I-1-Z, (Z)-3-Fluoro-2-(4-methoxybenzyl)-allylamine hydrochloride] as the compound, how does the IC50 [1] read?
The IC50 was 92 µM.

And the “Ligand binding to the listed receptors” value [2]?
Its value is “not affected”.

What about the inhibition at 10 µM (A2A (h)) of the same compound?
The inhibition at 10 µM was 13%.

And the inhibition at 10 µM (β1 (h))?
The inhibition at 10 µM was 5%.

What about the inhibition at 10 µM (β2 (h)) of the same compound?
Its inhibition at 10 µM is 6%.

And the inhibition at 10 µM (AT2 (h))?
Its inhibition at 10 µM is -19%.

And the inhibition at 10 µM (BZD (peripheral))?
The inhibition at 10 µM was -6%.

And the “Mean Value, percent inhibition of control specific binding: BB (non-selective)” value (BB (non-selective))?
The value was 21%.

And the inhibition at 10 µM (CCKA (h) (CCK1))?
The inhibition at 10 µM was -13%.

And the inhibition at 10 µM (CCKB (h) (CCK2))?
Its inhibition at 10 µM is -5%.

And the inhibition at 10 µM (D2S (h))?
Its inhibition at 10 µM is -4%.

What about the inhibition at 10 µM (H2 (h)) of the same compound?
The inhibition at 10 µM was 16%.

What about the inhibition at 10 µM (NK1 (h)) of the same compound?
Its inhibition at 10 µM is -6%.

And the inhibition at 10 µM (Y1 (h))?
Its inhibition at 10 µM is -2%.

What about the inhibition at 10 µM (κ (KOP)) of the same compound?
The inhibition at 10 µM was -18%.

And the inhibition at 10 µM (5-HT2A (h))?
Its inhibition at 10 µM is -4%.

What about the “Mean Value, percent inhibition of control specific binding: SK^+Ca channel” value (SK^+Ca channel) of the same compound?
The value was 4%.

What about the “Mean Value, percent inhibition of control specific binding: Cl^− channel” value (Cl^− channel) of the same compound?
The value was −6%.

What about the inhibition at 10 µM (DA transporter (h)) of the same compound?
The inhibition at 10 µM was 38%.
